Laboratory results reported in the NIST ThermoML archive (doi:10.1021/je7003116).

Assay: mn = molality of the nth substance listed, in mol/kg
Settings: 101 kPa, Liquid; for electrical conductivity: Alternating current cell with electrodes

CC(=O)CC(c1ccccc1)c1c([O-])c2ccccc2oc1=O.[Na+] (stereo not given) [warfarin sodium] + O
Settings	electrical conductivity [S/m]	mass density [kg/m3]
303.15 K, m1 = 0.176	–	1009.57
303.15 K, m1 = 0.2	–	1011.47
303.15 K, m1 = 0.225	–	1013.56
303.15 K, m1 = 0.25	–	1015.65
303.15 K, m1 = 0.275	–	1017.69
303.15 K, m1 = 0.3	–	1019.77
303.15 K, m1 = 0.325	–	1021.79
303.15 K, m1 = 0.35	–	1023.81
303.15 K, m1 = 0.375	–	1025.71
303.15 K, m1 = 0.3999	–	1027.67
313.15 K, m1 = 0.005	0.0299	–
313.15 K, m1 = 0.00576	–	992.687
313.15 K, m1 = 0.006	0.0358	–
313.15 K, m1 = 0.00695	–	992.784
313.15 K, m1 = 0.007	0.0416	–
313.15 K, m1 = 0.00759	–	992.836
313.15 K, m1 = 0.008	0.0474	–
313.15 K, m1 = 0.00857	–	992.916
313.15 K, m1 = 0.009	0.0532	–
313.15 K, m1 = 0.00988	–	993.022
313.15 K, m1 = 0.01	0.059	–
313.15 K, m1 = 0.02	0.1131	–
313.15 K, m1 = 0.0241	–	994.171
313.15 K, m1 = 0.04	0.216	–
313.15 K, m1 = 0.047	–	995.977
313.15 K, m1 = 0.06	0.314	–
313.15 K, m1 = 0.0719	–	997.928
313.15 K, m1 = 0.08	0.401	–
313.15 K, m1 = 0.0984	–	999.945
313.15 K, m1 = 0.1	0.489	–
313.15 K, m1 = 0.125	0.595	1001.91
313.15 K, m1 = 0.15	0.694	1003.72
313.15 K, m1 = 0.175	0.79	–
313.15 K, m1 = 0.176	–	1005.74
313.15 K, m1 = 0.2	0.88	1007.59
313.15 K, m1 = 0.225	0.963	1009.61
313.15 K, m1 = 0.25	1.046	1011.64
313.15 K, m1 = 0.275	1.13	1013.62
313.15 K, m1 = 0.3	1.206	1015.64
313.15 K, m1 = 0.325	–	1017.6
313.15 K, m1 = 0.35	–	1019.56
313.15 K, m1 = 0.375	–	1021.4
313.15 K, m1 = 0.4009	–	1023.31
323.15 K, m1 = 0.005	0.0327	–
323.15 K, m1 = 0.00585	–	988.498
323.15 K, m1 = 0.006	0.039	–
323.15 K, m1 = 0.007	0.0454	–
323.15 K, m1 = 0.00702	–	988.591
323.15 K, m1 = 0.00767	–	988.642
323.15 K, m1 = 0.008	0.0516	–
323.15 K, m1 = 0.0087	–	988.722
323.15 K, m1 = 0.009	0.0576	–
323.15 K, m1 = 0.01	0.0638	–
323.15 K, m1 = 0.01001	–	988.824
323.15 K, m1 = 0.02	0.1211	–
323.15 K, m1 = 0.0243	–	989.947
323.15 K, m1 = 0.04	0.233	–
323.15 K, m1 = 0.0469	–	991.708
323.15 K, m1 = 0.06	0.338	–
323.15 K, m1 = 0.072	–	993.609
323.15 K, m1 = 0.08	0.429	–
323.15 K, m1 = 0.0985	–	995.582
323.15 K, m1 = 0.1	0.523	–
323.15 K, m1 = 0.125	0.634	997.493
323.15 K, m1 = 0.15	0.734	999.248
323.15 K, m1 = 0.175	0.83	–
323.15 K, m1 = 0.1765	–	1001.22
323.15 K, m1 = 0.2	0.921	1003.02
323.15 K, m1 = 0.225	1.008	1004.99
323.15 K, m1 = 0.25	1.091	1006.96
323.15 K, m1 = 0.275	1.171	1008.89
323.15 K, m1 = 0.3	1.245	1010.86
323.15 K, m1 = 0.325	–	1012.77
323.15 K, m1 = 0.35	–	1014.68
323.15 K, m1 = 0.375	–	1016.47
323.15 K, m1 = 0.4021	–	1018.32
